Reference: patent US20090012152A1, “Use of Tetramic Acid Derivatives for Controlling Insects from the Genus of the Plane Lice (Sternorrhyncha)” (Bayer CropScience Aktiengesellschaft, priority 2005, published 2009)

How the values were obtained:
Type in all cases: in vivo
[1] = test system: Bemisia tabaci; assay: Example 32: bell peppers treated against Bemisia tabaci; conditions: larvae on leaves, % a.i.: imidacloprid 0.02, I-9, I-2, I-11 0.0144; for Kill (%) 7 d: 7 d after second treatment; for Kill (%) 14 d: 14 d after second treatment; for Kill (%) 22 d: 22 d after second treatment
Method: In three replications, plots of a size of 10 m^2 with bell peppers of the cultivar “Italiano” are treated against Bemisia tabaci. The application is carried out using a motor-operated knapsack sprayer. Here, the active compounds Example (I-9) (240 SC), Example (I-2) (60 SC) and Example (I-11) (60 SC) and the commercial standard imidacloprid (200 SL) are applied at the stated application rates. Three applications at an interval of 14 or 15 days are carried out, at an application rate of 1000 or 1100 l of water/ha.
Evaluation is carried out 7, 14 and 22 days after the second treatment by rating the kill of the animals (larvae) on the leaves.

[2] = test system: Bemisia argentifolii; assay: Example 35: aubergines (F 100) treated against Bemisia argentifolii; conditions: 7 d after last of three treatments, nymphs on leaves, % a.i.: imidacloprid 0.014, I-9, I-2, I-11 0.0144
Method: In three replications, plots of a size of 10 m^2 with aubergines of the cultivar “F 100” are treated against Bemisia argentifolii. The application is carried out using a knapsack sprayer operated with pressurized air. Here, the active compounds Example (I-9) (60 SC), Example (I-2) (60 SC) and Example (I-11) (60 SC) and the commercial standard imidacloprid (70 WG) are tested at the stated application rates. Three applications are carried out, at an interval or 7 or 8 days. The application rate is 1000 l of water/ha.
Evaluation is carried out 7 days after the last treatment by rating the kill of the nymphs on the leaves.

[3] = test system: Trioza erythreae; assay: Example 8: orange trees treated against Trioza erythreae; conditions: nymphs on branches, rate %: imidacloprid 0.004, I-4 0.0144; for Kill (%) 7 d: 7 d after first of two treatments; for Kill (%) 14 d: 14 d after first of two treatments; for Kill (%) 20 d: 20 d after first of two treatments
Method: In three replications, about 2-year-old orange trees are treated against Trioza erythreae. The application is carried out using a knapsack sprayer operated with pressurized air. Here, the active compound Example (I-4) (240 SC) is tested in a tank mix with 0.2% a.i. of rapeseed oil methyl ester (500 EW) against the commercial standard imidacloprid (100 SL) at the stated application rates. The application rate is 540 l of water/ha. Two treatments are carried out, at an interval of 7 days.
Evaluation is carried out 7, 14 and 20 days after the first treatment by rating the kill of the nymphs on the branches.

[4] = test system: Pseudococcus spp.; assay: Example 28: vines treated against Pseudococcus spp.; conditions: 28 days after last of two treatments, on grapes, imidacloprid drip irrigation 560 g/ha, I-4 0.0168%, I-9 0.0144% spray
Method: In four replications, three in each case about 12-year-old vines of the cultivar “Auvemat” are treated against Pseudococcus spp. The commercial standard used is an application with imidacloprid at the recommended application rate, by drip irrigation. The active compounds are applied by spraying using a knapsack sprayer operated with pressurized air. Here, the active compounds Example (I-4) (240 SC) and Example (I-9) (240 SC) are applied in a tank mix with 0.1% a.i. of rapeseed oil methyl ester (500 EW), at the stated amount. Two applications are carried out at an interval of 15 days. The application rate is 1776 l of water/ha. Evaluation is carried out 28 days after the last treatment by rating the kill on grapes in percent.

[5] = test system: Aleurodes citri; assay: Example 31: orange tree treated against Aleurodes citri; conditions: on leaves, g a.i./ha/m crown height: imidacloprid 75, I-4 72; for Kill (%) 7 d: 7 d after treatment; for Kill (%) 14 d: 14 d after treatment; for Kill (%) 21 d: 21 d after treatment
Method: In four replications, in each case one orange tree of the cultivar “Newhall” is treated against Aleurodes citri. Here, the active compound Example (I-4) (240 SC) is, at the stated application rate, tested against the commercial standard imidacloprid. The active compounds are applied in a tank mix with 0.5% a.i. of Oliocin (700 EW), at an application rate of 1500 l of water/ha. The application is carried out using a motor-operated knapsack sprayer.
Evaluation is carried out 7, 14 and 21 days after the treatment by rating the kill of the animals on the leaves.

[6] = test system: Toxoptera citricida; assay: Example 45: orange tree treated against Toxoptera citricida; conditions: on leaves, % a.i.: imidacloprid 0.0125, I-9 0.0144, I-4 0.0144; for Kill (%) 6 d: 6 d after treatment; for Kill (%) 20 d: 20 d after treatment
Method: In three replications, in each case one about 8-year-old orange tree of the cultivar “Navel” is treated against Toxoptera citricida. Here, the active compounds Example (I-9) (240 SC) and Example (I-4) (240 SC), in a tank mix with 0.1% a.i. of Marlipal, are tested against the commercial standard imidacloprid (350 SC), at the stated application rates. The application is carried out using a motor-operated knapsack sprayer, the application rate being 6.7 l of water/plant.
Evaluation is carried out 6 and 20 days after the treatment by rating the kill of the animals on the leaves.

[7] = test system: Myzus persicae; assay: Example 47: peach trees infested with Myzus persicae; conditions: live animals on shoots, Henderson and Tilten, g a.i./ha/m crown height: imidacloprid 25, I-4 24; for Effect (%) 7 d: 7 d after application; for Effect (%) 14 d: 14 d after application; for Effect (%) 21 d: 21 d after application
Method: In three replications, under practical conditions, about 18-year-old peach trees of the cultivar “Vivian” infested with Myzus persicae are treated with Example (I-4) (240 SC) in a tank mix with 0.2% a.i. of rapeseed oil methyl ester (500 EW) in comparison to the commercial standard imidacloprid 200 SL, at the stated application rates. The application is carried out using a motor-operated knapsack sprayer. The application rate is 1000 l of water/ha.
Evaluation is carried out 7, 14 and 21 days after the application by counting the live animals on the shoots. The efficacy is then calculated by calculating the effect on the population in percent according to Henderson and Tilten.

[8] = test system: Aphis gossypii; assay: Example 52: melons treated against Aphis gossypii; conditions: on shoots, g a.i./ha: imidacloprid 100, I-4 48; for Kill (%) 3 d: 3 d after treatment; for Kill (%) 7 d: 7 d after treatment
Method: In three replications, plots of a size of 15 m^2 with melons are treated against Aphis gossypii. The application is carried out using a knapsack sprayer operated with pressurized air. Here, the active compound Example (I-4) (240 SC), in a tank mix with 0.1% a.i. of rapeseed oil methyl ester (500 EW), and the standard imidacloprid (200 SL) are applied at the stated application rates. The application rate is 500 l of water/ha.
Evaluation is carried out 3 days and 7 days after the treatment by rating the kill of the animals on the shoots.

| Compound | Kill (%) 7 d [1] | Kill (%) 14 d [1] | Kill (%) 22 d [1] | Kill (%) 7 d [2] | Kill (%) 7 d [3] | Kill (%) 14 d [3] | Kill (%) 20 d [3] | Kill (%) [4] | Kill (%) 7 d [5] | Kill (%) 14 d [5] | Kill (%) 21 d [5] | Kill (%) 6 d [6] | Kill (%) 20 d [6] | Effect (%) 7 d [7] | Effect (%) 14 d [7] | Effect (%) 21 d [7] | Kill (%) 3 d [8] | Kill (%) 7 d [8] |
| --- | --- | --- | --- | --- | --- | --- | --- | --- | --- | --- | --- | --- | --- | --- | --- | --- | --- | --- |
| CCOC(=O)OC1=C(c2cc(C)ccc2Br)C(=O)NC12CCC(OC)CC2 (stereo not drawn) [Example (I-2)] | 84.7% | 92.6% | 85.6% | 100% |  |  |  |  |  |  |  |  |  |  |  |  |  |  |
| CCOC(=O)OC1=C(c2cc(C)ccc2C)C(=O)NC12CCC(OC)CC2 (stereo not drawn) [Example (I-4)] |  |  |  |  | 97.9% | 98.9% | 98.3% | 99% | 90.9% | 99.5% | 99.9% | 97% | 97% | 94.0% | 98.9% | 93.3% | 94.7% | 100% |
| O=[N+]([O-])NC1=NCCN1Cc1ccc(Cl)nc1 [imidacloprid, reference compound] | 75.8% | 67.2% | 69.4% | 100% | 98.4% | 99.2% | 98.6% | 100% | 98.4% | 99.6% | 99.4% | 99% | 94% | 97.6% | 95.8% | 78.1% | 98.2% | 100% |
